Results taken from EP1090017B1, “NOVEL COMPOUNDS DERIVED FROM ALPHA-D-XYLOSE, PREPARATION METHOD AND THERAPEUTIC USE” (FOURNIER INDUSTRIE ET SANTE, priority 1998, dated 1999).

Tests used:
[1] = test system: souris femelles, déficientes en apolipoprotéine E (homozygotes); experiment: Antiatheromatous activity in apolipoprotein E-deficient mice: lesion surface after 14 weeks of compound in the food; format: in vivo; settings: 300 mg/kg in the food, versus untreated control mice
Text: (§1) L'activité antiathéromateuse des composés selon l'invention a été mise en évidence sur des souris femelles, déficientes en apolipoprotéine E (homozygotes). Selon le protocole de ce test, le produit à évaluer est administré dans la nourriture (régime alimentaire standard) pendant 14 semaines. Après ce laps de temps, les souris sont euthanasiées et le coeur et la crosse aortique sont prélevés. Les surfaces lésées sont évaluées selon la méthode décrite dans Arteriosclerosis, 1990, 10, p. 316-323.
Le tableau I présente les résultats obtenus selon ce test pratiqué avec le composé de l'exemple 2 à différentes doses. Les résultats sont exprimés en pourcentage de réduction de la surface des plaques d'athérome, par rapport à un groupe de souris témoin non traitées. Tableau I

cholestérol sérique = experiment: Serum cholesterol (area under curve) measured periodically during the 14-week apoE-deficient mouse trial; format: in vivo, souris; settings: for AUC (aire sous courbe du cholestérol): whole 14 weeks of the trial
Text: as §1
Durant les 14 semaines de l'essai décrit ci-dessus dans le but d'évaluer les propriétés antiathéromateuses des composés, on a mesuré périodiquement le taux de cholestérol sérique des souris traitées et des souris témoins, et le résultat est exprimé sous la forme aire sous courbe (AUC) du cholestérol pendant toute la durée de l'essai. Les résultats obtenus avec le composé de l'exemple 2 sont reportés dans le tableau II où AUC représente l'aire sous courbe (exprimée en g.jour.1^-1) et la variation (en pourcentage) est appréciée par rapport au groupe témoin. Tableau II

Row | Structure (SMILES) | Réduction (%) de la surface des plaques d'athérome [1] | variation (%) de l'AUC du cholestérol (cholestérol sérique; 10 mg/kg, versus control group) | AUC (aire sous courbe du cholestérol) (cholestérol sérique; 10 mg/kg) | AUC (aire sous courbe du cholestérol) (cholestérol sérique; 100 mg/kg) | AUC (aire sous courbe du cholestérol) (cholestérol sérique; 300 mg/kg)
1 | N#Cc1ccc(C(=O)c2ccc(S[C@@H]3SC[C@@H](O)[C@H](O)[C@H]3O)cc2)cc1 [[4-(4-cyanobenzoyl)phényl] 1,5-dithio-β-D-xylopyranoside] | 30% |  |  |  | 
2 | N#Cc1ccc(C(=O)c2ccc(S[C@H]3SC[C@@H](O)[C@H](O)[C@H]3O)cc2)cc1 [Exemple 2, [4-(4-cyanobenzoyl)phényl] 1,5-dithio-α-D-xylopyranoside] |  | 0% | 585 ± 15 g.jour.1^-1 | 507 ± 16 g.jour.1^-1 | 505 ± 20 g.jour.1^-1
